US20170000126A1, “METHOD FOR INHIBITING CONIDIAL GERMINATION AND MYCELIAL GROWTH OF FUNGI SYMBIOTICALLY ASSOCIATED WITH BARK BEETLES” (Montana State University - Billings, priority 2015, published 2017)

Tests used:
C. albicans = conditions: previous finding of the inventors (ref. 5); cited from earlier work
[1] = test system: Ceratocystiopsis brevicomi; assay: disk diffusion assay; type: cell-based; conditions: C. brevicomi; 50-300 μg per disk
Protocol: (§1) The second assay is based on the standard “disk diffusion assay” routinely used in antimicrobial testing. Fungi are grown and harvested as for the microplate assay. After diluting 1:10, 150 μl of filtered conidia are spread evenly onto an Malt Extract Agar (MEA) plate. For each plate, 50 μg (0.12 μmole), 100 μg (0.25 μmole), 200 μg (0.50 μmole) and 300 μg (0.75 μmole) of the appropriate molecule (dissolved in DMSO) are spotted onto four separate Whatman Grade AA 6 mm filter disks. A control disk with 20 μl of DMSO only is also prepared. The DMSO is allowed to evaporate completely from each disk at room temperature and then the molecule-impregnated disks are positioned equidistant from each other on a plate. Plates are incubated at room temperature for 3 to 7 days, depending on the fungal species. At the end of the incubation period, the zone of inhibition (i.e., the region around each disk where no growth is visible) is measured from edge to edge of visible growth across and over the center of the disk. Images of the disk assays are obtained using an Epson Perfection V750 Pro desktop scanner.
(§2) Strains of G. clavigera, O. montium and C. brevicomi were obtained from Dr. Diana Six at the University of Montana and maintained on MEA plates (see below) at room temperarture.
(§3) Each small molecule was dissolved in dimethyl sulfoxide (DMSO) as a 10 mM stock and diluted directly into 100 μl of the appropriate YPD medium at 50 μM, 100 μM, 200 μM and 300 μM final concentration (for the microplate assay) or spotted onto Whatman 6 mm filter disks in 50 microgram (μg), 100 μg, 200 μg or 300 μg amounts (for the disk diffusion assay). The control condition (no small molecule) included DMSO to a concentration equivalent to that of the small molecule-containing wells or filter disks.
(§4) In order to identify additional inhibitors of morphogenesis, we employed a core structure search of the Chembridge chemical database and identified 72 compounds of related structure to BH3I-1 (the “core structure” used in the database searches was defined as the benzylidene group attached to a thiazolidine ring). The BH3I-1-related molecules were tested in the disk diffusion assay (200 μg per disk) for anti-fungal activity against all three species of bark beetle-associated fungi. […] These molecules were retested three separate times with 50, 100, 200 and 300 μg per disk (FIGS. 6, 7, 8, 9, 10).

Ophiostoma montium [2] = assay: disk diffusion assay; type: cell-based; conditions: O. montium; 50-300 μg per disk
Protocol: as §1, §2, §3, §4

Grosmannia clavigera [3] = assay: disk diffusion assay; type: cell-based; conditions: G. clavigera; 50-300 μg per disk
Protocol: as §1, §2, §3, §4

[4] = test system: Ceratocystiopsis brevicomi; assay: microplate assay (conidial germination and mycelial growth); type: cell-based; conditions: C. brevicomi
Protocol: (§5) In the first assay, referred to as the “microplate assay”, fungi are first grown in liquid medium at 25° C. for 48 hours, and conidia are harvested by filtration through cheese cloth. The conidia are then transferred to the wells of an optical microplate containing (i) growth medium and (ii) varying concentrations of BH3I-1 (typically 0, 50, 100, 200 and 300 μM BH3I-1). The microplates are incubated for up to 120 hrs at 25° C. Germination and mycelial growth are monitored visually with a Nikon TE200 inverted microscope and spectrophotometrically in a Biotek Synergy H4 plate reader. For the spectrophotometric analysis, Optical Density 600 (OD600) readings are taken every six hours over the course of the experiment.
as §2
(§6) YPD medium (1% Yeast Extract, 2% Peptone and 2% Dextrose), a standard fungal growth medium, is used for these experiments. YPD plates included 1.5% agar.
as §3

Ophiostoma montium [5] = assay: as above; type: cell-based; conditions: O. montium
Protocol: as §5, §2, §6, §3

Grosmannia clavigera [6] = assay: as above; type: cell-based; conditions: G. clavigera
Protocol: as §5, §2, §6, §3

Row | Structure (SMILES) | inhibition of morphogenesis (yeast-to-filamentous growth transition) (C. albicans) | anti-fungal activity (inhibition of conidial germination and mycelial growth) [1] | anti-fungal activity (inhibition of conidial germination and mycelial growth) (Ophiostoma montium [2]) | anti-fungal activity (inhibition of conidial germination and mycelial growth) (Grosmannia clavigera [3]) | inhibition of conidial germination and mycelial growth [4] | inhibition of conidial germination and mycelial growth (Ophiostoma montium [5]) | conidial cells failed to germinate (Grosmannia clavigera [6]; 100 μM) | mycelial growth of conidia that did germinate (Grosmannia clavigera [6]; 100 μM) | time for which growth inhibition was maintained (Grosmannia clavigera [6]; 25° C., YPD) [h]
1 | CC(C)C(C(=O)O)N1C(=O)C(=Cc2ccc(Br)cc2)SC1=S (stereo not drawn) [BH3I-1, 5-(p-Bromobenzylidine)-α-isopropyl-4-oxo-2-thioxo-3-thiozolidineacetic acid] | inhibits | inhibit the conidial germination and mycelial growth | inhibit the conidial germination and mycelial growth | inhibit the conidial germination and mycelial growth | inhibited conidial germination and mycelial growth | inhibited conidial germination and mycelial growth | approximately 80% | mycelia grew for a few hours and then stopped | 120
2 | CC(C)C(C(=O)O)N1C(=O)C(=Cc2ccc(Cl)cc2)SC1=S (stereo not drawn) [BH3I-1-12, 2-[5-(4-chlorobenzylidene)-4-oxo-2-thioxo-1,3-thiazolidin-3-yl]-3-methylbutanoic acid] | – | inhibit the conidial germination and mycelial growth | inhibit the conidial germination and mycelial growth | inhibit the conidial germination and mycelial growth | – | – | – | – | –
3 | CCCC(C(=O)O)N1C(=O)C(=Cc2ccc(O)cc2)SC1=S (stereo not drawn) [BH3I-1-66, 2-[5-(4-hydroxybenzylidene)-4-oxo-2-thioxo-1,3-thiazolidin-3-yl]pentanoic acid] | – | inhibit the conidial germination and mycelial growth | inhibit the conidial germination and mycelial growth | inhibit the conidial germination and mycelial growth | – | – | – | – | –
4 | CC(C)c1ccc(C=C2SC(=S)N(CC(=O)O)C2=O)cc1 [BH3I-1-68, [5-(4-isopropylbenzylidene)-4-oxo-2-thioxo-1,3-thiazolidin-3-yl]acetic acid] | – | inhibit the conidial germination and mycelial growth | inhibit the conidial germination and mycelial growth | inhibit the conidial germination and mycelial growth | – | – | – | – | –
5 | CCCC(C(=O)O)N1C(=O)C(=Cc2ccccc2Cl)SC1=S (stereo not drawn) [BH3I-1-69, 2-[5-(2-chlorobenzylidene)-4-oxo-2-thioxo-1,3-thiazolidin-3-yl]pentanoic acid] | – | inhibit the conidial germination and mycelial growth | inhibit the conidial germination and mycelial growth | inhibit the conidial germination and mycelial growth | – | – | – | – | –
